Test results from patent US20230346889A9, “TREATMENT OF ACUTE HEART FAILURE” (AnaCardio R&D AB, priority 2019, published 2023).
Entries after “also recorded” stand apart in the source; their conditions may differ.

Legend:
[1] = test system: patients with advanced CHF and reduced EF; test: Trial echocardiography; assay type: in vivo, human
Method: Echocardiography was performed by a technician blinded to treatment allocation and all echo images were analyzed and interpreted by one independent investigator blinded to treatment allocation and clinical history of the patients. Two dimensional images were recorded with a Vivid 7/E9 ultrasound system (GE, Horten, Norway) with a 3 MHz Doppler transducer. A detailed echocardiographic examination including dimensions, cardiac systolic and diastolic function, valve performance and systolic pulmonary artery pressure was performed at baseline (Table 5). A shorter protocol including left ventricular dimensions and function, stroke volume and cardiac output was used for comparison of changes over time (Table 9 and 10). Left ventricular end-systolic and end-diastolic volumes and left ventricular ejection fraction (LVEF) were measured using the modified biplane Simpson's method. LVEF was also measured using the Teichholz method. Because of missing data on LVEF by the Simpson's method due to low image quality, changes in LVEF over time was calculated using the Teichholz method. Left atrial volumes were calculated using the biplane area length method from the apical four- and two-chamber views and indexed to the body surface area. The E/e′ ratio was calculated using the peak E-wave velocity of the mitral inflow and the averaged of septal and lateral tissue Doppler recordings. Tricuspid annular peak systolic excursion (TAPSE) was assessed with M-mode echocardiography. Speckle tracking was used for left ventricular longitudinal strain. […] Stroke volume was derived from the left ventricular outflow tract (LVOT) area and the LVOT […] time integral (VTI) (LVOT area×LVOT VTI). Cardiac output was calculated as the echo derived stroke volume×heart rate.

rat HF models = settings: cited from earlier work
[2] = test system: phosphorylation of serine 23-24 on troponin I; test: Cardiomyocyte protein immunoblotting of troponin I phosphorylation; assay type: cell-based, mouse; settings: for troponin I serine 23-24 phosphorylation signal: 15 min treatment, vs placebo
Method: Isolated cardiomyocytes were treated for 15 min in different conditions (Placebo, Ghrelin, D-Lys 3 GHS-R1a, D-Lys 3 GHS-R1a+Ghrelin). Thereafter cardiomyocytes were pelleted and homogenated. Protein lysates were separated by electrophoresis and transferred onto membranes. Membranes were incubated with primary antibody: rabbit phospho-troponin I (cardiac) ([…]) antibody (Cell Signaling #4004), mouse troponin 1 (Millipore MAB1691A). Then infrared-labelled secondary antibodies (IRDye 680 and IRDye 800, 1:5000, Licor) were used. Immunoreactive bands were analyzed using the Odyssey Infrared Imaging System. Band densities were quantified with Image J, normalized to GAPDH and final data expressed as fold increase compared to Placebo group.

[3] = test system: dogs with acute myocardial infarction; settings: US2004014671A1; cited from earlier work

CCCCCCCC(=O)OC[C@H](NC(=O)[C@H](CO)NC(=O)CN)C(=O)N[C@@H](Cc1ccccc1)C(=O)N[C@@H](CC(C)C)C(=O)N[C@@H](CO)C(=O)N1CCC[C@H]1C(=O)N[C@@H](CCC(=O)O)C(=O)N[C@@H](Cc1cnc[nH]1)C(=O)N[C@@H](CCC(N)=O)C(=O)N[C@@H](CCCNC(=N)N)C(=O)N[C@H](C(=O)N[C@@H](CCC(N)=O)C(=O)N[C@@H](CCC(N)=O)C(=O)N[C@@H](CCCNC(=N)N)C(=O)N[C@@H](CCCCN)C(=O)N[C@@H](CCC(=O)O)C(=O)N[C@@H](CO)C(=O)N[C@@H](CCCCN)C(=O)N[C@@H](CCCCN)C(=O)N1CCC[C@H]1C(=O)N1CCC[C@H]1C(=O)N[C@@H](C)C(=O)N[C@@H](CCCCN)C(=O)N[C@@H](CC(C)C)C(=O)N[C@@H](CCC(N)=O)C(=O)N1CCC[C@H]1C(=O)N[C@@H](CCCNC(=N)N)C(=O)O)C(C)C [Ghrelin]
CO (echocardiography) ([1]; 2-5 days FU): 3.8 ± 1.3 L/min
E/e′ ([1]; 2-5 days FU): 16.2 ± 8.3 ratio
LVEDD ([1]; 2-5 days FU): 66 ± 10 mm
LVEF ([1]; 2-5 days FU): 28.5 ± 11.9%
LVESD ([1]; 2-5 days FU): 57 ± 11 mm
SV (echocardiography) ([1]; 2-5 days FU): 52.5 ± 20.6 mL
TAPSE ([1]; 2-5 days FU): 11.8 ± 6.0 mm
Strain ([1]; 2-5 days FU, n = 12): 10.4 ± 6.4%
CO (echocardiography) ([1]; +30 min): 4.1 ± 1.5 L/min
E/e′ ([1]; +30 min): 15.3 ± 6.6 ratio
LVEDD ([1]; +30 min): 65 ± 9 mm
LVEF ([1]; +30 min): 30.1 ± 11.2%
LVESD ([1]; +30 min): 56 ± 11 mm
SV (echocardiography) ([1]; +30 min): 62.2 ± 23.8 mL
TAPSE ([1]; +30 min): 14.1 ± 5.4 mm
Strain ([1]; +30 min, n = 13): 12.46 ± 4.1%
CO (echocardiography) ([1]; BL): 3.8 ± 1.5 L/min
E/e′ ([1]; BL): 15.2 ± 5.5 ratio
LVEDD ([1]; BL): 66 ± 9 mm
LVESD ([1]; BL): 58 ± 9 mm
SV (echocardiography) ([1]; BL): 54.3 ± 18.4 mL
TAPSE ([1]; BL): 13.0 ± 5.9 mm
LVEF ([1]; BL, Teichholz method): 27.4 ± 7.4%
Strain ([1]; BL, n = 13 in ghrelin group): 11.9 ± 6.3%
CO (echocardiography) ([1]; Baseline (Table 10)): 3.8 ± 1.5 L/min
E/e′ ([1]; Baseline (Table 10)): 15.2 ± 5.5 ratio
LVEDD ([1]; Baseline (Table 10)): 66 ± 9 mm
LVEF ([1]; Baseline (Table 10)): 27.4 ± 7.4%
LVESD ([1]; Baseline (Table 10)): 58 ± 9 mm
SV (echocardiography) ([1]; Baseline (Table 10)): 54.3 ± 18.4 mL
TAPSE ([1]; Baseline (Table 10)): 13.0 ± 5.9 mm
Strain ([1]; Baseline (Table 10), n = 12 in ghrelin group): 11.9 ± 6.3%
CO (echocardiography) ([1]; INF + 60 min): 3.9 ± 1.3 L/min
E/e′ ([1]; INF + 60 min): 17.1 ± 9.5 ratio
LVEDD ([1]; INF + 60 min): 67 ± 9 mm
LVEF ([1]; INF + 60 min): 29.1 ± 11.5%
LVESD ([1]; INF + 60 min): 58 ± 11 mm
SV (echocardiography) ([1]; INF + 60 min): 56.3 ± 21.4 mL
TAPSE ([1]; INF + 60 min): 13.1 ± 4.8 mm
Strain ([1]; INF + 60 min, n = 13): 13.4 ± 4.6%
CO (echocardiography) ([1]; INF + 120 min): 3.9 ± 1.4 L/min
E/e′ ([1]; INF + 120 min): 16.3 ± 8.9 ratio
LVEDD ([1]; INF + 120 min): 67 ± 10 mm
LVEF ([1]; INF + 120 min): 29.8 ± 11.4%
LVESD ([1]; INF + 120 min): 57 ± 11 mm
SV (echocardiography) ([1]; INF + 120 min): 59.5 ± 25.5 mL
TAPSE ([1]; INF + 120 min): 14.2 ± 5.4 mm
Strain ([1]; INF + 120 min, n = 13): 13.2 ± 5.8%
change in CO by echocardiography ([1]; in vivo): trends toward a difference in change of CO in favor of ghrelin; also recorded: a nominal interaction suggesting improvement with ghrelin but no significant differences in change
change in E/e′ ([1]; in vivo): no differences in change; also recorded: no interaction with or differences in change
change in EF ([1]; in vivo): a trend toward a greater absolute (p=0.12) and percent change (p=0.14) in EF with ghrelin; also recorded: a nominal interaction suggesting improvement in EF with ghrelin
change in LVEDD ([1]; in vivo): no change or differences in change
change in LVESD ([1]; in vivo): no change or differences in change
change in SV by echocardiography ([1]; in vivo): a significant difference in change of SV in favor of ghrelin; also recorded: a significant interaction suggesting improvement with ghrelin
change in TAPSE ([1]; in vivo): a trend toward a greater difference in change; also recorded: a trend toward an interaction suggesting improvement in TAPSE
segmental strain by echocardiography ([1]; in vivo): numerical differences in favor of ghrelin but no statistical significance
CO and fractional shortening (rat HF models; rat HF models (Nagaya et al., 2001d)): increased CO and fractional shortening
cardiac sympathetic activity and LV remodeling (rat HF models; rat myocardial infarction models): reduced cardiac sympathetic activity and left ventricular (LV) remodeling
total troponin I expression [2]: without change
troponin I serine 23-24 phosphorylation signal [2]: less cTnI phosphorylation (hypophosphorylation)
troponin I serine 23-24 phosphorylation signal ([2]; listed as ghrelin): lower compared to placebo
improvement of CO [3]: not
